The structures appear in SMILES notation.

Consider 3 molecules from patent EP0719267B1, “SECOND MESSENGER CELL SIGNALING INHIBITORS” (CELL THERAPEUTICS, INC., priority 1993, dated 1994).

For series [1], the system named is IL-2 (alpha chain CD25) receptor. In words: IL-2 receptor expression on anti-CD3 stimulated splenocytes (flow cytometry). Type of series: cell-based, mouse. As to conditions: anti-CD3 1 µg/ml, 24 hours, 1 µM. The protocol: This investigation illustrates IL-2 (alpha chain CD25) receptor expression on mouse splenoyctes. The IL-2 receptor is not expressed on resting T-cells, but is rapidly-induced by certain stimulants, e.g. antigen recognition or treatment with ConA or antibodies to CD3 (anti-CD3). IL-2-dependent proliferation requires IL-2 receptor expression. […] 49 (1 µM). Following overnight incubation, the splenocytes were stained with a fluoresceinated anti-IL-2 receptor antibody and fluorescence measured by flow cytometry. Figures 5A and 5B are frequency histograms of measurements for 20,000 cells per sample.
In another assay, inventive compound no. […] Murine splenocytes were activated for 24 hours with anti-CD3 (1 µg/ml), stained with a fluorescent antibody to CD25 and analyzed by flow cytometry.
(In flow cytometry, cells or beads pass a laser one at a time.)

For series [2], the system named is anti-CD3-stimulated mouse splenocytes. Put plainly: Cytokine release from anti-CD3-stimulated splenocytes (ELISA). As to conditions: 1 µM, overnight. Type of series: cell-based. The protocol: Figures 59A, 59B and 59C report assay results investigating the effect of inventive compound no. 45 on cytokine release from anti-CD3-stimulated mouse splenocytes. […] 45 (1 µM). Concentrations chosen were approximately equal to IC50 values. The supernatants were harvested and assayed for cytokine levels using commercial ELISAs for proliferation. Anti-CD3 stimulated release of IL-2, IFN-γ and IL-4 (background levels for media control were negligible). […] However, compound no. […] Compound no.
In general terms: In an ELISA, binding on a coated surface is turned into a signal by an enzyme label.

In series [3] the test system is human foreskin fibroblasts, HS68. Put plainly: Prostaglandin E2 release from IL-1α-stimulated fibroblasts. Type of series: cell-based. To be noted: 100 pg/ml IL-1α, 24 hours. The protocol:
Figure 61 illustrates that inventive compound no. […] Cells were stimulated with 100 pg/ml IL-1α. Inventive compound no. 45 was added 1 hour prior to stimulation. Supernatants were harvested 24 hours later and levels of PGE2 were analyzed by commercial immunoassay. The results are reported in figure 61 and confirm no effect on PGE2 release.

In series [4] the test system is IL-2 receptor beta (p70) subunit. Put plainly: IL-2 receptor beta subunit internalization in CT-6.1 cells (flow cytometry). Type of series: cell-based, murine. As to conditions: 20 ng/ml IL-2. The protocol: In figure 55, inventive compound no. […] In this assay protocol, CT-6.1 cells were starved overnight and stimulated with 20 ng/ml IL-2. At various times following IL-2 stimulation, cells were rapidly suspended in ice cold PBS and stained using a fluoresceinated monoclonal recognizing the beta subunit of the IL-2 receptor and cell surface expression analyzed by flow cytometry. Figure 55 is a plot of mean fluorescence versus time (in minutes) following IL-2 addition, illustrating that IL-2r beta subunit was rapidly internalized following IL-2 addition with cell surface expression remaining low for 6 hours. Inventive compound no.

Series [5] deals with murine splenocytes. Put plainly: Splenocytes stimulated with anti-CD3 and anti-CD28 antibodies: proliferation and cytokine release. Type of series: cell-based. From the text:
Figures 58A and 58B illustrate that inventive compound no. […] Murine splenocytes were stimulated with a mixture of anti-CD3 and anti-CD28 monoclonal antibodies. Inventive compound no.
Figures 58C and 58D illustrate that compound no. […] Procedurally, murine splenocytes were stimulated with a mixture of anti-CD3/CD28 antibodies. Inventive compound no. […] Addition of an anti-IL-2 receptor alpha subunit antibody and an anti-IL-2 receptor beta subunit antibody to the cultures inhibited both proliferation and the release of IFN-γ (figure 60D).

In series [6] the test system is murine splenocytes. In words: Anti-CD3 priming followed by IL-2 restimulation of splenocytes. To be noted: 1 µM. Type of series: cell-based. The protocol:
53A. […] The cells were pulsed with ^3H-TdR for 4 hours and harvested and incorporation of ^3H-TdR determined.

The test system of the next series is Lewis Lung Carcinoma. In words: Lewis Lung Carcinoma (3LL) in vivo experiment. Further details: species or system BDFI mice. The protocol:
Figure 43 reports results in an in vivo experiment showing that inventive compound no. […] BDFI mice were injected subcutaneously with 1 x 10^6 3LL cells on day 0 and then treated with inventive compound no. (20 mg/kg i.p.), cyclophosphamide (20 mg/kg) or vehicle on alternate days beginning on day 7. The animals were sacrificed on day 20 and the lung tumors dissected and weighed. Figure 43 illustrates that compound no. […] Figure 44A and 44B illustrates platelet and neutrophil counts, respectively, of the sacrificed mice in the immediately preceding assay. […] 50.

Series [7] deals with normal human bone marrow stromal cells. In words: Cytotoxicity in normal bone marrow stromal cells (vital dye uptake). Type of series: cell-based. To be noted: much higher concentrations than cytotoxic to tumor cells. The protocol:
Human bone marrow stromal cells (1 x 10^4 cells/well) were plated in 96 well plates in McCoy's medium with serum and incubated overnight. Different dilutions of inventive compound no. 50 were added and viable cell counts made by vital dye uptake.

In another series the test system is Balb/3T3 cells. Put plainly: Cytotoxicity to PDGF-stimulated Balb/3T3 cells (BCECF). Type of series: cell-based. To be noted: fig. 66B.
For series [8], the system named is human umbilical vein endothelial cell line (HUVEC). Put plainly: VEGF-induced proliferation of HUVEC. Type of series: cell-based. The protocol: This example illustrates an investigation of inhibitory effects of compound no. 58 on Vascular Endothelial Growth Factor (VEGF)-induced proliferation in a human umbilical vein endothelial cell line (HUVEC). In this assay procedure, cells were grown in reduced serum (0.5% fetal calf serum) for 24 hours prior to stimulating with various concentrations of VEGF. […] Compound no.
(§1) As illustrated in figures 67A and 67B, inventive compound no. 58 inhibited VEGF-induced proliferation in HUVEC and EGF-induced proliferation in Swiss/3T3 cells, respectively. Procedurally, HUVEC were placed in 0.5% serum containing medium prior to stimulation with various concentrations of VEGF, with or without inventive compound no. 58 (5 µM). Twenty four hours later the cells were pulsed with ^3H-TdR and 4 hours later harvested and counted by scintillation. The IC50 for inhibition was approximately 50-100 nM. Swiss 3T3 cells were stimulated with 20 ng/ml EGF and 24 hours later harvested and counted by scintillation.

For another series, the system named is Swiss/3T3 cells. Put plainly: EGF-induced proliferation in Swiss/3T3 cells. Type of series: cell-based. To be noted: 20 ng/ml EGF. The protocol: as §1
Another series concerns HUVEC. Put plainly: VEGF-induced HUVEC migration, Matrigel invasion assay system. Type of series: cell-based. To be noted: Homo sapiens, 50 ng/ml VEGF. From the text: 58. HUVEC were placed in a Matrigel invasion assay system (Becton Dickinson) and VEGF-induced migration assessed with or without varying concentrations of inventive compound no. 58.
The next series relates to human TNFα. In words: Whole blood ex vivo assay of TNF release (ELISA). To be noted: mouse TNFα and human IL-1α, 6 hours. Type of series: cell-based. The protocol: Figure 74 illustrates that inventive compound no. […] 58 using a human whole blood ex vivo assay. In this assay, human whole blood was stimulated with mouse TNFα and human IL-1α with or without various concentrations of inventive compound no. 58. After 6 hours, the plasma was analyzed for human TNFα levels using a commercial ELISA.

The mark [9] stands for this setting: 20 mg/kg i.p. alternate days from day 7, day 20.

Description for Balb/3T3 cells: LD50 values were determined using a cytotoxicity assay, as in Example 32. In these assays, Balb/3T3 cells, stimulated with PDGF and treated with one of the above inventive compounds in a manner identical to the tritiated thymidine procedure above, were incubated instead with a viable dye BCECF, a fluorescent dye. Fluorescence was measured using a fluorescent plate reader.

For `CCCCCCCCNCC(O)CCCCCCCCCn1c(=O)c2c(ncn2C)n(C)c1=O` (stereo not drawn) [compound no. 45], in series [1], the CD-25 receptor upregulation result was “did not inhibit CD-25 (p55) receptor upregulation by anti-CD3”. Besides, in series [2], the IFN-γ release entry is given as “drastically inhibited IFN-γ release”, the IL-2 release result is reported as “did not significantly inhibit IL-2 release” and the IL-4 release result was “only partially inhibits IL-4 release”. In addition, the “prostaglandin E2 release” value in [3] was “did not have an effect on prostaglandin E2 release”. Also, the “IL-2 receptor beta subunit internalization” value in [4] is “did not inhibit this receptor internalization activity”. Also, in the series with murine splenocytes [5], the “CD28-mediated release of IL-2” value was “did not inhibit the CD28-mediated release of IL-2”, the T cell proliferation result is “inhibited T cell proliferation in this system” and the “release of IFN-γ” value is “inhibited release of IFN-γ”. In the series with murine splenocytes [6], the “proliferation of anti-CD3 primed splenocytes, compound present with IL-2” value was “proliferation was inhibited” and the “response to IL-2 after compound present during anti-CD3 incubation” value is “did not block the splenocyte's ability to respond to IL-2”.

With `CCCCCCCCCCCCNCC(O)CCCCCCCCCn1c(=O)c2c(ncn2C)n(C)c1=O` (stereo not drawn) [compound no. 50, 1-(11-Dodecylamino-10-hydroxyundecyl)-3,7-dmethylxanthine], in the series with Lewis Lung Carcinoma (setting [9]), the “lung tumor weight compared with cyclophosphamide (20 mg/kg)” value is listed as “superior results over an existing cancer chemotherapeutic agent” and the tumor growth entry is listed as “can arrest growth of Lewis Lung Carcinoma in mice”. Also, in the series with Lewis Lung Carcinoma (20 mg/kg i.p., sacrificed mice), the “platelet and neutrophil counts” value was “not altered from vehicle”. The cytotoxic activity result in series [7] is listed as “lacks cytotoxic activity in normal human bone marrow stromal cells”.

In the case of `COc1cc(CNCC(O)CCCCCCCCCn2c(=O)c3c(ncn3C)n(C)c2=O)cc(OC)c1OC` (stereo not drawn) [compound no. 58, 1-[11-(3,4,5-Trimethoxybenzylamino)-10-hydroxyundecyl]-3,7-dimethylxanthine], the cytotoxicity result in the series with Balb/3T3 cells is listed as “not cytotoxic to Balb/3T3 cells”. Further, the “inhibition of VEGF-induced proliferation” value in series [8] (5 µM) was “inhibited VEGF-induced proliferation at all concentrations of VEGF tested”. In addition, the IC50 (usually the concentration that inhibits the measured activity by half) in [8] (Homo sapiens, HUVEC, VEGF, 0.5% serum) was 50 to 100 nM; with Swiss/3T3 cells it was around 20 nM; in the series with HUVEC, 100 to 200 nM. For the same molecule, the TNF release result in the series with human TNFα is recorded as “inhibited TNF release”.
